In assay [1] the target is T1, human A3 AR (Homo sapiens, UniProt P0DMS8).
T1 sequence (P0DMS8 1-318): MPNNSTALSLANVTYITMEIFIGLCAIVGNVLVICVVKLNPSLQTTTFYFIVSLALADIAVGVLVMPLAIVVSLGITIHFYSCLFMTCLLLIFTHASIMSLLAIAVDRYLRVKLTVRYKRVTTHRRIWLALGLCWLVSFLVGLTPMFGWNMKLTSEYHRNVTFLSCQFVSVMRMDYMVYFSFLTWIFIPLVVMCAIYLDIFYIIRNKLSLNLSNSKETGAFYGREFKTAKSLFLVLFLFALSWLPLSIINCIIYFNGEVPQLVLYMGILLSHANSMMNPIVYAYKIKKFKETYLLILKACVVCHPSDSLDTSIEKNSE
The assay can be described thus: cell-based. The note with it: CHO, read-out: Ca2+ Emax.

For assay [2], the target named is T1, human A3 AR. Nature of the assay: cell-based. The following applies: CHO, read-out: β-arrestin2 Emax.
For assay [3], the target named is T1, human A3 AR. Nature of the assay: Membrane hyperpolarization. The note with it: for Emax: CHO, read-out: hyperpolarization Emax; for agonist activity in membrane hyperpolarization assay, in words: agonist alone.
Assay [4] has as its target T1, human A3 AR. The assay can be described thus: Cyclic AMP accumulation assay.
For assay [5], the target named is T1, human A3 AR. The following applies: no agonist.
For assay [6], the target named is T1, human A3 AR. The note with it: LUF6000 10 μM.
Assay [7] has as its target T1, human A3 AR. The note with it: agonist Cl-IB-MECA; LUF6000 1, 3, and 10 μM.
The subject of assay [8] is other subtypes of ARs. The following applies: concentrations up to 10 μM; cited from earlier work.

Each structure is given as a SMILES string.

As usually defined, the Emax is the maximal effect, on the per cent scale that the assay sets. `CNC(=O)[C@H]1O[C@@H](n2cnc3c(NCc4cccc(I)c4)nc(Cl)nc32)[C@H](O)[C@@H]1O` [Cl-IB-MECA, 2-chloro-N^6-(3-iodobenzyl)adenosine-5′-N-methyluronamide]: the Emax in assay [1] amounted to 55.2 ± 3.4%; in assay [2], 104 ± 5%; in assay [3], 58.3 ± 3.6%; in assay [4] (CHO, read-out: cyclic AMP Emax), 95.8 ± 4.8%.
Consider `Clc1ccc(Nc2nc3ccccc3c3[nH]c(C4CCC4)nc23)cc1Cl` [LUF5999, N-(3,4-dichloro-phenyl)-2-cyclobutyl-1H-imidazo[4,5-c]quinolin-4-amine], for which the “effect on agonist action (efficacy and potency), in words” value in assay [4] (agonist Cl-IB-MECA) was “concentration-dependently increasing efficacy while decreasing potency”.
As for `Clc1ccc(Nc2nc3ccccc3c3[nH]c(C4CCCCC4)nc23)cc1Cl` [LUF6000, N-(3,4-dichloro-phenyl)-2-cyclohexyl-1H-imidazo[4,5-c]quinolin-4-amine], in assay [5], the “effect of modulator alone on intracellular calcium mobilization” value is recorded as “had no effect”. For the same molecule, the “enhancement of the effect of Cl-IB-MECA” value in assay [6] (agonist Cl-IB-MECA) is listed as “less than 10%”. Further, in assay [6] (agonist NECA), the “enhancement of the effect of NECA” value was “less than 10%”. The “enhancement of the efficacy of MRS542” value in assay [6] (partial agonist MRS542) is recorded as “about 40%”. In addition, the “effect on the efficacy of Cl-IB-MECA in inducing ERK1/2 activation” value in assay [7] is “had no effect”. Further, in assay [8], the “binding at the other subtypes of ARs” value is given as “did not bind appreciably”. Moreover, the “further increase of the efficacy of Cl-IB-MECA at higher concentration” value in assay [3] (agonist Cl-IB-MECA, LUF6000 30 μM) was “did not induce a further increase”. For the same molecule, the “effect on the efficacy of adenosine” value in assay [3] (agonist adenosine, data not shown) was “did not show any effect”. Besides, the “enhancement of the residual activity of inosine, MRS541 and LUF5833” value in assay [3] (ligands inosine, MRS541, LUF5833) was “did not show any enhancement”. For the same molecule, the “effect of modulator alone on membrane hyperpolarization” value in assay [3] (no agonist) was “did not show any effect”. Also, in assay [4] (agonist Cl-IB-MECA), the “concentration at which the efficacy-enhancing effect reaches a maximum” value was “approx. 10 μM” and the “concentration from which the efficacy-enhancing effect starts” value was not above 1 µM. Besides, the “relative enhancement of the efficacy of Cl-IB-MECA” value in assay [4] (agonist Cl-IB-MECA, LUF6000 10 μM) is given as 50%. For the same molecule, the “further enhancement at higher concentration” value in assay [4] (agonist Cl-IB-MECA, LUF6000 30 μM, data not shown) was “did not cause further enhancement”. Besides, the “effect on agonist potency” value in assay [4] (agonist Cl-IB-MECA, modulator 10 μM or lower) is reported as “did not significantly affect”. For the same molecule, the “maximum enhancement of the efficacy of NECA” value in assay [4] (agonist NECA, LUF6000 10 μM) is “about 16%”. Besides, in assay [4] (agonist inosine, LUF6000 10 μM), the “efficacy of inosine in presence of LUF6000, % of the level of NECA” value is given as 85%. The “effect on the inability of MRS1220 and MRS1191 to inhibit forskolin-stimulated cyclic AMP levels” value in assay [4] (nonnucleoside A3 AR antagonists MRS1220 and MRS1191, data not shown) was “did not show any effect”. Besides, the “effect on the efficacy of CCPA” value in assay [4] (nucleoside antagonist CCPA) is “no effect”. The “effect on the efficacy of MRS542” value in assay [4] (nucleoside antagonist MRS542) is given as “no effect”. Further, the “efficacy of LUF5833, % of the control level (agonist alone)” value in assay [4] (partial agonist LUF5833, LUF6000 10 μM) is given as “over 200%”. Besides, in assay [4] (partial agonist MRS541, LUF6000 10 μM), the “efficacy of MRS541, % of the control level (agonist alone)” value is “over 200%”.
In the case of `Clc1ccc(Nc2nc3ccccc3c3[nH]cnc23)cc1Cl` [LUF6001, N-(3,4-dichloro-phenyl)-1H-imidazo[4,5-c]quinolin-4-amine], in assay [4] (agonist Cl-IB-MECA), the “effect on agonist action (efficacy and potency), in words” value was “slightly decreased both the efficacy and potency”.
For `OC[C@H]1O[C@@H](n2cnc3c(NCc4cccc(I)c4)ncnc32)[C@H](O)[C@@H]1O` [MRS541, N^6-(3-iodobenzyl)adenosine], in assay [3], the “agonist activity in membrane hyperpolarization assay, in words” value (shortened to “agonist activity”) is given as “did not show any significant activation”.
On to `OC[C@H]1O[C@@H](n2cnc3c(NCc4cccc(I)c4)nc(Cl)nc32)[C@H](O)[C@@H]1O` [MRS542, 2-chloro-N^6-(3-iodobenzyl)adenosine], for which the Emax was 7.5 ± 2.5% in assay [1], 41.1 ± 3.2% in assay [2] and -3.8 ± 5.6% in assay [3]. Besides, the “agonist activity” value in assay [3] is on record as “did not show any agonist activity”.
Regarding `Nc1ncnc2c1ncn2[C@@H]1O[C@H](CO)[C@@H](O)[C@H]1O` [adenosine], the “agonist activity” value in assay [3] is listed as “equally efficacious as NECA”.
Same read-out and setting: for `O=c1[nH]cnc2c1ncn2[C@@H]1O[C@H](CO)[C@@H](O)[C@H]1O` [inosine] the value was “did not show any significant activation”.

Values taken from paper PMC3152598 (Biochemical pharmacology, 2011).
